# From ChEMBL document CHEMBL3872247, “Discovery of dual positive allosteric modulators (PAMs) of the metabotropic glutamate 2 receptor and CysLT1 antagonists for treating migraine headache” (Bioorg Med Chem Lett, 2017)
# Legend:
# [1] = molecular target: Histamine H2 receptor (Homo sapiens) (UniProt P25021); assay: Displacement of [125I]APT from recombinant human histamine H2 receptor expressed in HEK293 cells at 10 uM measured after 120 mins by scintillation counting method; assay type: cell-based
# [2] = Tmax in rat at 1 mg/kg, po; assay type: ADME, organism-based; details: in vivo
# [3] = molecular target: 5-hydroxytryptamine receptor 1F (Homo sapiens, UniProt P30939); assay: Activity at human 5HT1F receptor
# [4] = Half life in dog at 1 mg/kg, po; assay type: ADME, organism-based, Canis lupus familiaris; details: in vivo
# Cytochrome P450 3A4 = Cytochrome P450 3A4 (Homo sapiens, UniProt P08684); assay: Inhibition of CYP3A4 (unknown origin); assay type: ADME
# [5] = molecular target: Beta-1 adrenergic receptor (Homo sapiens) (UniProt P08588); assay: Displacement of [3H](-)CGP12177 from recombinant human beta1 adrenergic receptor expressed in HEK293 cells at 10 uM measured after 60 mins by scintillation counting method; assay type: cell-based
# hERG (KCNH2) = hERG (KCNH2) (Homo sapiens, UniProt Q12809); assay: Displacement of [3H]dofetilide from recombinant human ERG expressed in HEK293 cells measured after 60 mins by scintillation counting method; assay type: cell-based; details: HEK293 cells expressing recombinant human ERG, probe [3H]dofetilide
# [6] = Half life in dog at 0.5 mg/kg, iv; assay type: ADME, organism-based, Canis lupus familiaris; details: in vivo
# [7] = Cmax in dog at 1 mg/kg, po; assay type: ADME, organism-based, Canis lupus familiaris; parameters: dose 1 mg/kg, route oral; details: in vivo
# [8] = molecular target: T1, Metabotropic glutamate receptor 5 (Homo sapiens, UniProt P41594); assay: Agonist activity at recombinant human mGlu5 expressed in hamster AV12 cells expressing EAAT1 assessed as increase in intracellular calcium level measured after 24 hrs by FLIPR assay; assay type: functional, cell-based
# [9] = Ratio of drug level in brain to plasma in rat at 15 mg/kg, po; assay type: ADME, organism-based
# [10] = molecular target: Metabotropic glutamate receptor 4 (Homo sapiens) (UniProt Q14833); assay: Positive allosteric modulation of recombinant human mGlu4 receptor expressed in hamster AV12 cells expressing EAAT1 assessed as potentiation of glutamate-induced intracellular Ca2+ level at 20 uM after 24 hrs by FLIPR assay; assay type: functional, cell-based
# [11] = molecular target: 5-hydroxytryptamine receptor 6 (Homo sapiens, UniProt P50406); assay: Displacement of [3H]LSD from human 5HT6 receptor expressed in CHO cells after 120 mins by scintillation counting method; assay type: cell-based
# [12] = molecular target: 5-hydroxytryptamine receptor 1E (Homo sapiens, UniProt P28566); assay: Activity at human 5HT1E receptor
# Cytochrome P450 2D6 = Cytochrome P450 2D6 (Homo sapiens, UniProt P10635); assay: Inhibition of CYP2D6 (unknown origin); assay type: ADME
# [13] = molecular target: T2, Metabotropic glutamate receptor 1 (Homo sapiens, UniProt Q13255); assay: Antagonist activity at recombinant human mGlu1 receptor expressed in hamster AV12 cells expressing EAAT1 assessed as inhibition of glutamate-induced intracellular Ca2+ level measured after 24 hrs by FLIPR assay; assay type: functional, cell-based
# [14] = molecular target: 5-hydroxytryptamine receptor 1A (Homo sapiens, UniProt P08908); assay: Activity at human 5HT1A receptor
# [15] = molecular target: 5-hydroxytryptamine receptor 2C (Homo sapiens, UniProt P28335); assay: Activity at human 5T2C receptor
# Rattus norvegicus [16] = species on record: Rattus norvegicus; assay: Displacement of [3H]naloxone from opioid receptor in rat cerebral cortex at 10 uM measured after 40 mins by scintillation counting method
# [17] = Oral bioavailability in rat at 1 mg/kg; assay type: ADME, organism-based; details: in vivo
# [18] = molecular target: T3, Metabotropic glutamate receptor 2 (Homo sapiens, UniProt Q14416); assay: Positive allosteric modulation of recombinant human mGlu2 receptor expressed in hamster AV12 cells expressing EAAT1 assessed as potentiation of glutamate-induced intracellular calcium level measured after 24 to 48 hrs by FLIPR assay; assay type: functional, cell-based
# [19] = Cmax in rat at 1 mg/kg, po; assay type: ADME, organism-based; parameters: dose 1 mg/kg, route oral; details: in vivo
# [20] = molecular target: Metabotropic glutamate receptor 8 (Homo sapiens) (UniProt O00222); assay: Agonist activity at recombinant human mGlu8 expressed in hamster AV12 cells expressing EAAT1 assessed as increase in intracellular Ca2+ level at 30 uM after 24 hrs by FLIPR assay; assay type: functional, cell-based
# [21] = molecular target: T2, Metabotropic glutamate receptor 1; assay: Positive allosteric modulation of recombinant human mGlu1 expressed in hamster AV12 cells expressing EAAT1 assessed as potentiation of glutamate-induced intracellular Ca2+ level measured after 24 hrs by FLIPR assay; assay type: functional, cell-based
# [22] = Volume of distribution in dog at 0.5 mg/kg, iv; assay type: ADME, organism-based, Canis lupus familiaris; details: in vivo
# [23] = molecular target: T1, Metabotropic glutamate receptor 5; assay: Antagonist activity at recombinant human mGlu5 receptor expressed in hamster AV12 cells expressing EAAT1 assessed as inhibition of glutamate-induced intracellular Ca2+ level measured after 24 hrs by FLIPR assay; assay type: functional, cell-based
# [24] = Ratio of Cmax in rat to EC50 for human CysLT1 expressed in Syrian hamster AV12-664 cells
# [25] = molecular target: 5-hydroxytryptamine receptor 5A (Homo sapiens, UniProt P47898); assay: Displacement of human 5HT5A receptor expressed in HEK293 cells after 120 mins by scintillation counting method; assay type: cell-based
# [26] = Ratio of Cmax in rat to EC50 for human mGlu2 receptor expressed in hamster AV12 cells expressing EAAT1
# Cytochrome P450 2C9 = Cytochrome P450 2C9 (Homo sapiens, UniProt P11712); assay: Inhibition of CYP2C9 (unknown origin); assay type: ADME
# Rattus norvegicus [27] = species on record: Rattus norvegicus; assay: Displacement of [3H]flunitrazepam from Central-type benzodiazepine receptor in rat cerebral cortex at 10 uM measured after 60 mins by scintillation counting method
# [28] = molecular target: Metabotropic glutamate receptor 3 (Homo sapiens, UniProt Q14832); assay: Agonist activity at recombinant human mGlu3 expressed in hamster AV12 cells expressing EAAT1 assessed as increase in intracellular calcium level measured after 24 hrs by FLIPR assay; assay type: functional, cell-based
# [29] = molecular target: Adrenergic receptor alpha-1 (Rattus norvegicus) (UniProt P15823+P23944+P43140); assay: Displacement of [3H]prazosin from non-selective alpha1 adrenergic receptor in rat brain cortex at 10 uM measured after 60 mins by scintillation counting method; assay type: tissue-based
# [30] = Cmax in rat at 1 mg/kg, iv; assay type: ADME, organism-based; parameters: dose 1 mg/kg, route intravenous; details: in vivo
# [31] = molecular target: 5-hydroxytryptamine receptor 1D (Homo sapiens, UniProt P28221); assay: Activity at human 5HT1D receptor
# [32] = molecular target: Histamine H1 receptor (Homo sapiens) (UniProt P35367); assay: Displacement of [3H]pyrilamine from recombinant human histamine H1 receptor expressed in HEK293 cells at 10 uM measured after 60 mins by scintillation counting method; assay type: cell-based
# [33] = molecular target: 5-hydroxytryptamine receptor 1B (Homo sapiens, UniProt P28222); assay: Activity at human 5HT1B receptor
# [34] = molecular target: 5-hydroxytryptamine receptor 7 (Homo sapiens, UniProt P34969); assay: Displacement of [3H]LSD from human 5HT7 receptor expressed in CHO cells after 120 mins by scintillation counting method; assay type: cell-based
# [35] = molecular target: D(1A) dopamine receptor (Homo sapiens) (UniProt P21728); assay: Displacement of [3H]SCH23390 from recombinant human dopamine D1 receptor expressed in CHO cells at 10 uM measured after 60 mins by scintillation counting method; assay type: cell-based
# [36] = molecular target: T3, Metabotropic glutamate receptor 2; assay: Positive allosteric modulation of recombinant human mGlu2 receptor expressed in hamster AV12 cells expressing EAAT1 assessed as potentiation of glutamate-induced intracellular calcium level measured after 24 to 48 hrs by FLIPR assay relative to glutamate; assay type: functional, cell-based
# T2 sequence (Q13255 whole entry): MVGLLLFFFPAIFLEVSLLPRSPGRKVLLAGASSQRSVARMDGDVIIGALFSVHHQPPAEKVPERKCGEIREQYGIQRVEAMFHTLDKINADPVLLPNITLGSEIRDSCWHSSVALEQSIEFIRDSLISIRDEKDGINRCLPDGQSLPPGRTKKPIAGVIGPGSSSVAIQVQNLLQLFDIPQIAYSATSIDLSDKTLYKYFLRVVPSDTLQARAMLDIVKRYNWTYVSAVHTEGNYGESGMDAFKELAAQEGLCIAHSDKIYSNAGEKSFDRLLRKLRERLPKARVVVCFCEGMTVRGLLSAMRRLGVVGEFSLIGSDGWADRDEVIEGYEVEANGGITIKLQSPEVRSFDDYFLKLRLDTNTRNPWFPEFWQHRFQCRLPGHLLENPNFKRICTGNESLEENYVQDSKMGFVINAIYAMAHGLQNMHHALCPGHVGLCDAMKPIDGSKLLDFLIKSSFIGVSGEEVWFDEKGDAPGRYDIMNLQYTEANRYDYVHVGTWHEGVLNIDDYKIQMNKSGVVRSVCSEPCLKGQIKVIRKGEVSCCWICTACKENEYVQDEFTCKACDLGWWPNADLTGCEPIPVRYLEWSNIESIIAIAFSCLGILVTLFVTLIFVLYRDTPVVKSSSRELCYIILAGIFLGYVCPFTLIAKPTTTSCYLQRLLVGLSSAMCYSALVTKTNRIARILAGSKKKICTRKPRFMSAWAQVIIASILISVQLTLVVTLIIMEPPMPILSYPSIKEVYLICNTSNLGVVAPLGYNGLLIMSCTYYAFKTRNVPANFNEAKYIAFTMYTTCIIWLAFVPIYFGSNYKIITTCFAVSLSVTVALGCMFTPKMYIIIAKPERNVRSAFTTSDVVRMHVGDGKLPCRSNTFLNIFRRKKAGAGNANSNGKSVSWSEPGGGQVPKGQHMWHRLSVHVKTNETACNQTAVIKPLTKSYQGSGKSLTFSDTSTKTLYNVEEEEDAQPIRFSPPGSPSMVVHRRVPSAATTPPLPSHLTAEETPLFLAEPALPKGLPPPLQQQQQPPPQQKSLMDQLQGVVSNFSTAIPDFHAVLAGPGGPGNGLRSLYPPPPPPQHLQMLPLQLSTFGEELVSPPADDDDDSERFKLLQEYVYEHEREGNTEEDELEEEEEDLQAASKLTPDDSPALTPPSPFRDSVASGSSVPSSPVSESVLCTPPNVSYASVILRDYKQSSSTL
# T1 sequence (P41594 whole entry): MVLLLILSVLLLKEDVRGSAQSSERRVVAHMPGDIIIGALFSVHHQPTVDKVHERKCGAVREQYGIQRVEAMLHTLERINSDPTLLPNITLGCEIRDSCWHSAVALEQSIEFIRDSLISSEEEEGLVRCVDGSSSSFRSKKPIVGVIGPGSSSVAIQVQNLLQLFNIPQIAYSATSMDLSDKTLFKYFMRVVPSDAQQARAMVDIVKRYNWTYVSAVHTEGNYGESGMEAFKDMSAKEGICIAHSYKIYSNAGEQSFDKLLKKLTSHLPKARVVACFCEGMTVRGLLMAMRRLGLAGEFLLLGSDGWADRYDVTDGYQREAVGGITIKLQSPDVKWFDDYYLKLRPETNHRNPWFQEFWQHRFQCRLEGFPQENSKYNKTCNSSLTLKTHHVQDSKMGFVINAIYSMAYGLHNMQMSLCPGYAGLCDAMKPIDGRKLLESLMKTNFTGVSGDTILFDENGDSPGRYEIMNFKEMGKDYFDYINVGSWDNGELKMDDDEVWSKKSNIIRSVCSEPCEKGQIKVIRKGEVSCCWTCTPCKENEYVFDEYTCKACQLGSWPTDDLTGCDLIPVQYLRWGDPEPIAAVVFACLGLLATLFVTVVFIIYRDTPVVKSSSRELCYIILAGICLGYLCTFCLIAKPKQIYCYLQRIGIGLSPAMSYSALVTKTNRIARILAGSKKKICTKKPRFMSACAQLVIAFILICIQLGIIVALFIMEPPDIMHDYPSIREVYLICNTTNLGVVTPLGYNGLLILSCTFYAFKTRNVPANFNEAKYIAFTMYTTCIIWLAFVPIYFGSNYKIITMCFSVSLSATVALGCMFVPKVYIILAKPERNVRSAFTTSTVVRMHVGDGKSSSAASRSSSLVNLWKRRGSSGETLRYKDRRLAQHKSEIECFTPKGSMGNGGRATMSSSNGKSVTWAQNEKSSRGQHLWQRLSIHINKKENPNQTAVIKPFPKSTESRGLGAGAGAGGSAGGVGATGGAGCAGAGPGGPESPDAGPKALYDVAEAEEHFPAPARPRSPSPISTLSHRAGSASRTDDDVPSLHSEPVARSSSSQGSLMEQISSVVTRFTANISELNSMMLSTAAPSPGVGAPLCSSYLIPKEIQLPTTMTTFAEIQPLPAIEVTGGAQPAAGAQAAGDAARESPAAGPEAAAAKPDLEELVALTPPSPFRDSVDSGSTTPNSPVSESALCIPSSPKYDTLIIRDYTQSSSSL
# Sequence of Cytochrome P450 2D6 (P10635 whole entry): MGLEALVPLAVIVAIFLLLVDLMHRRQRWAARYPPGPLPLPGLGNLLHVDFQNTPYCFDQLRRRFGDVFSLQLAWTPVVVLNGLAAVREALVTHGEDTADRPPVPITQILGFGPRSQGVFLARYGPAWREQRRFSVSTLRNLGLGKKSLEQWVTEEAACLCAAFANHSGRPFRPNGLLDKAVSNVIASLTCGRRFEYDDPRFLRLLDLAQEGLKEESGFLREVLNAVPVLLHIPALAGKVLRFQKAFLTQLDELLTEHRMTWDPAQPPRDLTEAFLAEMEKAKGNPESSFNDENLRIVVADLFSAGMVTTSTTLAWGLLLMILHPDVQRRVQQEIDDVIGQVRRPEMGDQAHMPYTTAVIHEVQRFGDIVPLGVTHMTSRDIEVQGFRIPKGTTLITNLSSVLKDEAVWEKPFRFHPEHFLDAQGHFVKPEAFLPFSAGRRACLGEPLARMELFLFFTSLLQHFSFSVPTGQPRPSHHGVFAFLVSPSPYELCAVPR
# Sequence of 5-hydroxytryptamine receptor 1B (P28222 whole entry): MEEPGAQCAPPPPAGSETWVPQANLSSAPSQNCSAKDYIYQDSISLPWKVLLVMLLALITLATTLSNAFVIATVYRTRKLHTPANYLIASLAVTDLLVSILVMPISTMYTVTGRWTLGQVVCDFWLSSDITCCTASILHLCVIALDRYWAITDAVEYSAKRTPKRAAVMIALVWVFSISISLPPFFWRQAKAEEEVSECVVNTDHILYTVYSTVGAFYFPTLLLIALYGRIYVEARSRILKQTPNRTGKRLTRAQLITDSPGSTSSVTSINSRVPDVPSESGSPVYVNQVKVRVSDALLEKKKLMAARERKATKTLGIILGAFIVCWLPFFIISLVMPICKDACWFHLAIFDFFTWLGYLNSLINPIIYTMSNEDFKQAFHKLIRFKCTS
# Sequence of 5-hydroxytryptamine receptor 7 (P34969 whole entry): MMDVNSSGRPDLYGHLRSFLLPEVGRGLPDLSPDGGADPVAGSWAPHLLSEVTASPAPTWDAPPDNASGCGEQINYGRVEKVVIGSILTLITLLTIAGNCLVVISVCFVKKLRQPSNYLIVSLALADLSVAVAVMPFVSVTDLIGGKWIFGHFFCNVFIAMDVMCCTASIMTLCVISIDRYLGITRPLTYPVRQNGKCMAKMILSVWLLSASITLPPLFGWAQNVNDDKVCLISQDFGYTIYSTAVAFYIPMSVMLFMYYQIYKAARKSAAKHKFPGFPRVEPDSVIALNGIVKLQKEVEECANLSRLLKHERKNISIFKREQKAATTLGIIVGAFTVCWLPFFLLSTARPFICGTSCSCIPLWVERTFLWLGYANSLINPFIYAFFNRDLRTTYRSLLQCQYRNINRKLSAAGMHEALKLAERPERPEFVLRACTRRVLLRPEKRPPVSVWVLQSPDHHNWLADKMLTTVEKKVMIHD
# Sequence of hERG (KCNH2) (Q12809 whole entry): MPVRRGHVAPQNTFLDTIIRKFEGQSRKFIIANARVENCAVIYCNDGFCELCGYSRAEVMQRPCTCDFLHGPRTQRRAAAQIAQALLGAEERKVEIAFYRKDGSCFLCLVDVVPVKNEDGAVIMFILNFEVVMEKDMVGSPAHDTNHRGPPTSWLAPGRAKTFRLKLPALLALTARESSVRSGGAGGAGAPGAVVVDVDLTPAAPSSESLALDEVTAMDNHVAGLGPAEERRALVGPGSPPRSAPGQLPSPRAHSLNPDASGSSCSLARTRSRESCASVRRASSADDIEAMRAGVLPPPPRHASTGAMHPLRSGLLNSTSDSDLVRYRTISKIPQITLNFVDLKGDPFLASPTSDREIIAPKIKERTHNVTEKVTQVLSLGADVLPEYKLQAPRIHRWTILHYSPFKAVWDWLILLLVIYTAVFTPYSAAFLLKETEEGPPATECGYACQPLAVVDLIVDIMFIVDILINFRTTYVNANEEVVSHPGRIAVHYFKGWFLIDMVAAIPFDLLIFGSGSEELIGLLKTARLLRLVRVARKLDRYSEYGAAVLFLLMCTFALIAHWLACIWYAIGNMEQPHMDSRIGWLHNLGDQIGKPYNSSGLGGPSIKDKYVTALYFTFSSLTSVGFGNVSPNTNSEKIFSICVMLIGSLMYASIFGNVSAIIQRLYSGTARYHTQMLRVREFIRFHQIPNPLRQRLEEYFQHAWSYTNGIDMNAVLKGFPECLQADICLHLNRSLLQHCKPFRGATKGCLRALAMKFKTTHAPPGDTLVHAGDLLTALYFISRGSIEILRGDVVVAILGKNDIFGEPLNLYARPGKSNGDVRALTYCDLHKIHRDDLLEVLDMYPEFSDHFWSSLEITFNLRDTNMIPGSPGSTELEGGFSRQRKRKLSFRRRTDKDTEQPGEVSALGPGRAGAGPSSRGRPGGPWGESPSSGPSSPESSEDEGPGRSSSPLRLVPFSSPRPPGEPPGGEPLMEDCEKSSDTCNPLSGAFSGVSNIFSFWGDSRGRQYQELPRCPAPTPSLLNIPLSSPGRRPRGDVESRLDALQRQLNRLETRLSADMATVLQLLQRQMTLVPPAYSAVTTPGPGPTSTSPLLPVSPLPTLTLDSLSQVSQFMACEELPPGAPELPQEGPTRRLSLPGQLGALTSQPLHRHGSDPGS
smiles,measurement,setting,value
CC(=O)c1ccc(OCc2ccc(Oc3cc(-c4nn[nH]n4)ccn3)cc2)c(C)c1O,inhibition,[1],10.2%
same,Tmax,[2],2.5 h
same,Ki,[3],> 2.97 µM
same,half-life,[4],1 h
same,INH,Cytochrome P450 3A4,> 40 µM
same,inhibition,[5],5.1%
same,inhibition at 1 h,hERG (KCNH2),< 15%
same,half-life,[6],2 h
same,Cmax,[7],143 ng/mL
same,EC50,[8],> 25 µM
same,BPR,[9],< 1%
same,Activity,[10],< 40%
same,Ki,[11],> 1.79 µM
same,Ki,[12],> 5.37 µM
same,INH,Cytochrome P450 2D6,> 40 µM
same,IC50,[13],> 8 µM
same,Ki,[14],> 3.02 µM
same,Ki,[15],> 7.87 µM
same,inhibition,Rattus norvegicus [16],15.1%
same,bioavailability,[17],39%
same,EC50,[18],0.201 to 0.287 µM
same,Cmax,[19],78 ng/mL
same,Activity,[20],< 20%
same,EC50,[21],> 12.5 µM
same,Vd,[22],2 L/kg
same,IC50,[23],> 12.5 µM
same,Ratio,[24],7.8
same,Ki,[25],> 6.9 µM
same,Ratio,[26],0.65
same,INH,Cytochrome P450 2C9,> 40 µM
same,inhibition,Rattus norvegicus [27],5.2%
same,EC50,[28],> 25 µM
same,inhibition,[29],5.3%
same,Cmax,[30],2160 ng/mL
same,Ki,[31],> 2.4 µM
same,inhibition,[32],0.7%
same,Ki,[33],> 3.58 µM
same,Ki,[34],> 3.98 µM
same,inhibition,[35],6.4%
same,Emax,[36],107%
